Source: ChEMBL document CHEMBL3507680, “University of Dundee, Gates Library screen for HepG2 cell viability”

assay: Human HepG2 cell viability assay in 384 well format; format: toxicity, cell-based; parameters: dose 125 nL, time 70.5 hour; concentration not given beside the values; settings: HepG2 cells, read-out: Inhibition

SMILES | cytotoxicity at 70.5 h
C[C@H]1C[C@H]2CN(C(=O)c3ccncn3)CC[C@H]2O1 | -0.543%
O=C(Cc1cccs1)N1C[C@@H]2COC[C@]2(COc2cccnc2)C1 | -1.72%
CC(C)CC(=O)N1CCN(C(=O)N(C)C)CC2(CC(=O)N(C)C2)C1 (stereo not drawn) | 0.114%
Cn1cc(-c2cnc(N3CCOCC3)nc2)cc1C(=O)O | -2.63%
CN1C[C@H]2CCN(C(=O)NC3CCCC3)CC[C@H]2S1(=O)=O | -17.8%
Cc1ncc(CN2CCc3nc4cc(C(C)(C)C)nn4c(O)c3C2)n1C | 7.3%
Fc1ccc2[nH]c3c(c2c1)CCN1C(c2ccccn2)N2CCC31CC2 (stereo not drawn) | 19%
CC1CCc2nn(CCNC(=O)c3cccs3)c(=O)cc2C1 (stereo not drawn) | 25.2%
CS(=O)(=O)N1CCC(Cc2cnc(Br)cn2)CC1 | -5.81%
Cn1cncc1CN1CCOC(Cc2ccccc2)C1 (stereo not drawn) | -8.78%
CC(=O)N1CCC(c2cncc(N3CCC(O)C3)n2)CC1 (stereo not drawn) | -2.45%
Cc1nn(CC(C)C)cc1S(=O)(=O)N(C)Cc1nonc1C | 0.131%
CCCn1cc(S(=O)(=O)N(C)Cc2nonc2C)c(C)n1 | -3.71%
CN(C)C(c1ccccn1)[C@H]1CC[C@H](CNC(=O)C2CC2)CC1 (stereo partly drawn) | 1.46%
COCCC(=O)NC[C@H]1CC[C@H](C(c2ccccn2)N(C)C)CC1 (stereo partly drawn) | -2.06%
CC(C)c1[nH]c2ncccc2c1CN1CCC(O)CC1 | -3.13%
CCC1c2ccsc2CCN1Cc1cc2c(cc1OC)OCCO2 (stereo not drawn) | 1.24%
CCN(CC)CCCNCc1cc2cc(C)cc(C)c2[nH]c1=O | 3.4%
CN(C)C(=O)Cn1c(C2CC2)c(CN2CCSCC2)c2cccnc21 | 1.03%
Cc1ccn(CCNC(=O)C2(C)CC(c3ccccc3)=NO2)n1 (stereo not drawn) | -1.48%
CCc1nc(N2CCOCC2)ncc1C(=O)NC(c1cccs1)C(C)C (stereo not drawn) | -0.678%
Cc1nccn1CCNC(=O)C1(C)CC(c2ccccc2)=NO1 (stereo not drawn) | -3.18%
Cc1cccc(C2(O)CCN(Cc3ccccc3N3CCCC3)CC2)c1 | 16.9%

SMILES | cytotoxicity at 70.5 h
Cc1cc(NCCNS(=O)(=O)c2cn(C)nc2C)c2ccccc2n1 | 13.5%
Oc1cc(-c2ccccn2)nc(C2CCN(Cc3ccncc3)CC2)n1 | 16.5%
CC(=O)N1C[C@H]2CCCN(S(=O)(=O)c3ccc(Cl)s3)[C@H]2C1 | 44.3%
CC(C)c1[nH]c2ncccc2c1CN1CCN(S(=O)(=O)N(C)C)CC1 | -7.69%
COCCCNS(=O)(=O)c1ccc2c(c1)NC(=O)C(C)O2 (stereo not drawn) | 1.94%
CCN(CC)CCCNCc1cc2cccc(C)c2[nH]c1=O | -4.69%
CC(C)c1ccc(CN[C@@H]2COC[C@H]2c2ccc(F)cc2)cc1 | -5.3%
CNc1nccnc1C1CN(C(=O)c2cc[nH]n2)CCO1 (stereo not drawn) | -4.96%
Cn1nc(C2CNCCO2)cc1CCOc1cccc(C(F)(F)F)c1 (stereo not drawn) | 7.31%
CCCc1cc(C(=O)N[C@@H]2CC[C@@H](N3CCOCC3)[C@@H]2O)no1 | -5.49%
CCc1cc(C(=O)N[C@@H]2CC[C@@H](N3CCOCC3)[C@@H]2O)no1 | -4.39%
Cc1n[nH]c(C)c1CCC(=O)NCC1(O)CCN(c2ccccn2)C1 (stereo not drawn) | -1.98%
Cn1nc(C2CNCCO2)cc1CCOc1ccc(C(F)(F)F)cc1 (stereo not drawn) | -1.52%
Cc1cnc(CC2COCCN(C(=O)CN3CCCCC3)C2)cn1 (stereo not drawn) | -2.32%
Cn1ccnc1CN1CCOC(Cc2ccccc2)C1 (stereo not drawn) | -3.39%
CC(=O)N1CCC(c2cncc(N3CCOCC3)n2)CC1 | -8.68%
c1cncc(CN2CC(Cc3nccc4cc[nH]c34)C2)c1 | -3.48%
CC(=O)N1CCC(c2cncc(Cl)n2)CC1 | 2.82%
Cc1ncncc1C(=O)N1CCOC(C(=O)NC2CCCC2)C1 (stereo not drawn) | -1.76%
Oc1cc(-c2ccsc2)nc(C2CCN(Cc3cccnc3)CC2)n1 | -5.93%
Cc1cc(C2CCN(S(=O)(=O)N(C)C)CC2)ccn1 | 12.7%
COc1ccc(C2CNCCN2C(=O)c2cccc3cccnc23)cc1 (stereo not drawn) | 12.4%
COc1ccc(C2CNCCN2C(=O)c2nccc3ccccc23)cc1 (stereo not drawn) | 5.97%

SMILES | cytotoxicity at 70.5 h
COc1ccc(C2CNCCN2C(=O)c2cccc3ncccc23)cc1 (stereo not drawn) | -3.21%
CNc1ncc(C(=O)N2CCOC(C(=O)N3CCCCCC3)C2)cn1 (stereo not drawn) | -2.75%
COCCC(=O)N1C[C@@H](c2ccc(F)c(F)c2)[C@@]2(CCCC(=O)N2)C1 | -1.65%
CNc1nc(C2CCCN(C(=O)C3CCCCC3)C2)nc2c1CNCC2 (stereo not drawn) | -3.63%
CNc1nccnc1C1CN(C(=O)c2c[nH]cn2)CCO1 (stereo not drawn) | 3.73%
c1ccc2ncc(CC3CNCCOC3)cc2c1 (stereo not drawn) | -0.7%
CN1CCCC(c2cccc(-c3cccc(C(F)(F)F)c3)n2)C1 (stereo not drawn) | -2.8%
CC(=O)N1CCCC1c1nc(C)c2c(n1)N(Cc1ccccn1)CCC2 (stereo not drawn) | -8.03%
CNC(=O)C1CN(Cc2cc(C)on2)CCN(C(C)=O)C1 (stereo not drawn) | -9.11%
CN1CCCC1c1cncc(C(=O)NCCN2CCCCC2)n1 (stereo not drawn) | -8.33%
CC(C)c1nnc(CCC(=O)N2CCCC(c3cnccn3)C2)o1 (stereo not drawn) | -9.44%
CNC(=O)c1cnc(C)nc1CCNC(=O)CCc1ccccc1 | 7.59%
NC(=O)c1cnc(NC2CC2)nc1CCNC(=O)Cc1ccccc1 | -5.85%
COc1ccc(F)cc1C(=O)N(C)[C@@H]1CC[C@@H](O)[C@@H]1O | -9.84%
COCc1ccc(OC)c(CNC2CCCNC2=O)c1 (stereo not drawn) | -8.49%
CC(=O)N1CCC(Cc2cnc(Nc3cc(C)on3)cn2)CC1 | -4.74%
Cc1ncsc1C(=O)N1CCC(c2ncncc2-c2ccnc(N)c2)C1 (stereo not drawn) | -7%
COc1ccccc1NC(=O)C1(c2ccccc2)CCOCC1 | -6.73%
CCNC(=O)c1cccc(CNC(=O)c2cnc(C(C)(C)C)s2)c1 | 2.86%
Cc1ccc(O)c(CNc2cccc(OCCF)c2)n1 | -5.5%
NC(=O)N1CCC(NCc2cc(Br)ccc2Cl)CC1 | -1.95%
Cc1ccc(OCC(=O)Nc2cc(C(=O)O)cc(S(C)(=O)=O)c2)cc1C | 0.676%
NC(=O)CN1CCC(NCc2cc(C(F)(F)F)ccc2Cl)CC1 | -4.69%

SMILES | cytotoxicity at 70.5 h
Cc1cc(N2CCCC(c3nncn3C3CC3)C2)ncn1 (stereo not drawn) | -2.44%
Cc1ccc(CN(CCN(C)C)C(=O)Cc2cn3ccccc3n2)o1 | -3.69%
CN(Cc1cnn(C)c1)CC(O)c1ccc2c(c1)OCO2 (stereo not drawn) | -2.83%
CCC(=O)N1CCC(NCc2cc(C(F)(F)F)ccc2Cl)C1 (stereo not drawn) | -4.4%
COc1cccc(C(C)N2CCN(S(=O)(=O)CCCF)CC2)c1 (stereo not drawn) | 34.9%
O=C(Nc1nncs1)c1ccc(O)nc1 | 0.228%
O=C(CN(Cc1cccs1)C1CCS(=O)(=O)C1)NCC1CCCCC1 (stereo not drawn) | -1.81%
COc1c(F)cc(NCC(=O)NC(C)(C#N)C2CC2)cc1F (stereo not drawn) | -0.61%
CC(c1cccc(Cl)c1)N1CCN(S(C)(=O)=O)CC1 (stereo not drawn) | -1.61%
Cn1cc(CNC(=O)Nc2ccc(S(=O)(=O)C(F)F)cc2)cn1 | 0.531%
O=C1NCCCCC1SCc1coc(-c2ccccc2)n1 (stereo not drawn) | -2.46%
CC(C#N)CNC(=O)Nc1ccc(Br)cc1 (stereo not drawn) | 2.54%
CC(=O)NC(Cc1c[nH]c2cc(F)ccc12)C(=O)Nc1nncs1 (stereo not drawn) | -2.58%
CC(=O)NC(Cc1c[nH]c2cc(F)ccc12)C(=O)Nc1cnn(C)c1 (stereo not drawn) | 1.79%
CCS(=O)(=O)CC(=O)Nc1ccc2oc(C3CC3)nc2c1 | -0.903%
Cc1nc(C2CCN(S(=O)(=O)c3ccc(Cl)cc3)CC2)n[nH]1 | 1.07%
Cc1nc(C2CCN(S(=O)(=O)c3ccc4c(c3)CCO4)CC2)n[nH]1 | 0.662%
CN(C)Cc1ccnc(NS(=O)(=O)CCc2ccccc2)c1 | 3.89%
O=C(NCCO)c1sc2ncccc2c1C1CNCCO1 (stereo not drawn) | -4.56%
c1cncc(CNc2cncc(C3CCCN3)n2)c1 (stereo not drawn) | -8.46%
CC1CCCN(Cc2c(C3CC3)n(CC(=O)N(C)C)c3ncccc23)C1 (stereo not drawn) | 27.3%
Cc1cnc(CCNc2cccc(CC3CCCNC3)n2)s1 (stereo not drawn) | 0.312%
CCN(CC)C(=O)CN1CCc2nc(C3CCNCC3)nc(NC)c2C1 | -4.13%

SMILES | cytotoxicity at 70.5 h
Cc1cc(Oc2ccccc2F)nc(C2CCCCN2)n1 (stereo not drawn) | -6.21%
CC(=O)N1CCN(c2cc(C3CCNCC3)ccn2)CC1 | -1.18%
Cc1nc(C2CCCNC2)nc2c1CCCN2Cc1ccccn1 (stereo not drawn) | -3.47%
CN(C)C(=O)CC1CC2(CCN(c3ncccn3)CC2)c2ccccc21 (stereo not drawn) | -0.293%
COCC1COCCC12CCN(CCc1ccccc1)CC2 (stereo not drawn) | -0.938%
CCn1cc2c(n1)CN(Cc1ccoc1)CC2COCC1CC1 (stereo not drawn) | 6.36%
CN1CC(=O)N(c2ccsc2)CC12CCN(S(C)(=O)=O)C2 (stereo not drawn) | 1.05%
O=C(Nc1cnccn1)[C@@H]1COC[C@H]2CN(C3CCCC3)C[C@H]21 | -3.18%
COCCN1CC[C@@H](O)[C@@H]1Cc1ccccc1 | -16.9%
CCCS(=O)(=O)N1CCOCC2(CCN(c3ccccn3)C2)C1 (stereo not drawn) | -11.6%
COC[C@H]1CCC[C@]12CN(CCc1ccccc1)CCO2 | -15.8%
O=C(Nc1cccnc1)[C@H]1COC[C@H]2CN(C3CCCC3)C[C@H]21 | 3.49%
Cn1cc(CN2CCc3onc(COc4cccnc4)c3C2)cn1 | 14.8%
COc1ncccc1CN1C[C@@H]2COC[C@]2(COCC2CC2)C1 | -11.6%
O=C(C[C@@H]1COC[C@H]2CN(Cc3ccncc3)C[C@@H]12)N1CCOCC1 | -13.2%
c1ccc(OCC2CC3(CCN(c4ncccn4)CC3)CO2)nc1 (stereo not drawn) | -19.6%
CCCSc1ncc(CN(C)CCN2CCCCC2)cn1 | -2.41%
Cn1cncc1CN1CCC(O)(Cn2nc(-c3cccs3)oc2=O)CC1 | -2.36%
Cc1ccc(CN[C@@H]2COC[C@H]2c2ccc(F)cc2)cc1C | 3.52%
CCOc1ccc(CN[C@@H]2COC[C@H]2c2ccc(F)cc2)cc1 | 29.1%
OCCN(Cc1ccncc1)CC1(c2ccc(Cl)cc2)CCCC1 | 1.74%
